Source: patent US12139488B2, “Pyrido[3,2-d]pyrimidine compounds uses thereof for treating a proliferative disease” (Universite de Montreal, priority 2021, dated 2024)
Where two headings read alike, the source gives them in different places.

Legend:
BRAF = BRAF (Homo sapiens (Human), UniProt P15056); experiment: BRAF kinase activity assay (ADP-Glo); type: biochemical
Description: (§1) Compound preparation: solid samples of each substances in 1 dram vials were suspended in DMSO (Fisher Scientific) at a stock concentration of 20 mM. Stocks were kept at −20° C. and protected from light.
(§2) In vitro enzymatic reactions were used for evaluating compounds intrinsic activity against BRAF, CRAF and ARAF. […] Separate reactions were performed with the MEK1 substrate and ATP as a blank control.
(§3) For compound treatment, 5 μL/well of test substance solution are placed in a 384-well proxyplate (Perkin Elmer) and mixed with 2× concentrated kinase reactions. The dilution series is selected so that nine concentrations cover a range from 100 nM to 0.01 nM. […] The final concentration of DMSO in the assay is set at 0.05%.
(§4) BRAF and CRAF kinase reactions were carried out for a total of 2 hours at 30° C. and then stopped by ½ dilution in ADP-Glo Reagent (cat #V9102; Promega; part V912C). Reactions were then incubated for 1h at room temperature before addition of one volume of Kinase Detection Reagent (cat #V9102; Promega; part V917A). Plates were then equilibrated at room temperature for 30 minutes before detection of luminescence on a Synergy Neo2 plate reader (Biotek). The effect of each compound dilution on BRAF and CRAF kinase activity was expressed as % inhibition and calculated as follows.
(§5) IC50 values were obtained by plotting the kinase inhibition values and fitting the dose-activity curves using a log(agonist) versus response-variable slope (four parameters) function using either GraphPadPrism (V7.0) or Dotmatics Screening Ultra platform.

[1] = system: pERK in HCT-116 cells (KRAS G13D); experiment: Phospho-ERK inhibition (AlphaLISA SureFire Ultra p-ERK 1/2), HCT116; type: cell-based, human; settings: for HCT116 pERK % Ymin (lowest value of the IC50 curve): Ymin above −20% = minimal or no paradoxical activation
Summary of the method: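 Overnight-seeded cells received compound for an hour before lysis, and phospho-ERK1/2 was then measured with an AlphaLISA SureFire Ultra kit. Percent inhibition relative to vehicle, after trametinib background subtraction, gave IC50 by curve fitting.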

CRAF = CRAF (Homo sapiens, UniProt P04049); experiment: CRAF kinase activity assay (ADP-Glo); type: biochemical
Description: as §1, §2, §3, §4, §5

[2] = system: pERK in SW480 cells (KRAS G12D); experiment: Phospho-ERK inhibition (AlphaLISA), SW480; type: cell-based, human
Description: All cancer cell lines (A375, A101D, A2058, RKO, HT29 SK-MEL 30, IPC298, HepG2, HCT-116, Lovo, SWV620, SW480, NCI-H358, NCI-H2122, Calu-6, NCIH2087, NCIH1755, NCIH1666 and Mewo) were obtained from ATCC and cultured in RPMI-1640 medium (Gibco) supplemented with 5% heat inactivated fetal bovine serum (FBS, Wisent) at 37° C. under 5% CO2. Cells were maintained in T175 flasks (Greiner). They were passaged by removing the culture medium, washing once in 10 mL of room temperature Phosphate Buffered Saline (PBS; Wisent) and incubating at 37° C. with 2 mL of 0.05% Trypsin (Thermo-Fisher). Trypsin was then inactivated by adding complete growth medium and the cells were then replated in a T175 culture dish at the appropriate dilution. All cell lines were routinely tested for mycoplasma contamination. Tissue type and mutational status of each cell line can be found in Table B.
AlphaLISA® SureFire® Ultra™ p-ERK 1/2 (Thr202/Tyr204) analysis was conducted on cells plated in 100 μL of complete RPMI-1640 growth medium in 96-well flat-bottomed transparent dishes (Costar) at a density indicated in Table C. Cells were maintained overnight at 37° C. under 5% CO2 before treatment with compounds' dilution series for one hour. The cell density in cells/cm^2 corresponds to cell number divided by the area of one well of a 96-well plate ([…]).
In a dilution series 100 μL/well of test substance dilution prepared in complete RPMI-1640 growth media was added to the cells. The dilution series is selected so that ten concentrations cover a range from 10 μM to 0.33 nM. If necessary the initial concentration of 10 μM is increased to 100 μM or lowered to 1 μM (as in the case of A375 and H1666 cells, which are generally more sensitive to the compounds) and further dilution is carried out accordingly. The final concentration of DMSO in the assay is set at 0.5%.
After treatment, media was removed and cells were lysed in 50 μL of 1× AlphaScreen Ultra Lysis Buffer (Perkin Elmer). The AlphaLISA® SureFire® Ultra™ p-ERK 1/2 (Thr202/Tyr2O4) (PerkinElmer) reactions were performed with 5 μL of cell lysate according to the manufacturer's specifications in 384-well proxyplates (Perkin Elmer) followed by overnight incubation of the reactions at room temperature in a humidified chamber. After completion of the reactions, the signals were recorded on an EnVision plate reader (Perkin Elmer) using built in AlphaLISA® settings.
The effect of each compound dilution on the pERK signal was expressed in % inhibition and calculated as follows. An internal 100% inhibition control ([…] trametinib, cat #HY-10999; MedChem Express; CAS #871700-17-3) was included in each plate and used as a measure of pERK background. First, the value obtained for trametinib was subtracted from each data point. The average of DMSO (vehicle) controls (set as 0% inhibition) was established and used to calculate % inhibition: % inhibition=100*(1-((pERK signalcompound)/(pERK signalDMSO)))
The ability of each compound to inhibit pERK signal was expressed as an IC50 value obtained by plotting the inhibition values for each data point of a dilution series and fitting the obtained curves using a log(agonist) versus response-variable slope (four parameters) function using GraphPadPrism (V7.0) or Dotmatics Screening Ultra platform.
When present, paradoxical pERK induction is inferred from the negative % inhibition values observed in the pERK IC50 curves of a compound.

[3] = read-out: Kinase IC50 (nM) BRAF
[4] = HCT116 cells, class symbol before the bracket
[5] = read-out: Kinase IC50 (nM) CRAF
[6] = SW480 cells, class symbol before the bracket
[7] = lowest % inhibition value of the IC50 curve, HCT116
[8] = lowest % inhibition value of the IC50 curve, SW480
[9] = BRAF, read-out: Kinase IC50 (nM), BRAF biochemical kinase assay
[10] = CRAF, read-out: Kinase IC50 (nM), CRAF biochemical kinase assay

Sequence of BRAF (P15056 whole entry): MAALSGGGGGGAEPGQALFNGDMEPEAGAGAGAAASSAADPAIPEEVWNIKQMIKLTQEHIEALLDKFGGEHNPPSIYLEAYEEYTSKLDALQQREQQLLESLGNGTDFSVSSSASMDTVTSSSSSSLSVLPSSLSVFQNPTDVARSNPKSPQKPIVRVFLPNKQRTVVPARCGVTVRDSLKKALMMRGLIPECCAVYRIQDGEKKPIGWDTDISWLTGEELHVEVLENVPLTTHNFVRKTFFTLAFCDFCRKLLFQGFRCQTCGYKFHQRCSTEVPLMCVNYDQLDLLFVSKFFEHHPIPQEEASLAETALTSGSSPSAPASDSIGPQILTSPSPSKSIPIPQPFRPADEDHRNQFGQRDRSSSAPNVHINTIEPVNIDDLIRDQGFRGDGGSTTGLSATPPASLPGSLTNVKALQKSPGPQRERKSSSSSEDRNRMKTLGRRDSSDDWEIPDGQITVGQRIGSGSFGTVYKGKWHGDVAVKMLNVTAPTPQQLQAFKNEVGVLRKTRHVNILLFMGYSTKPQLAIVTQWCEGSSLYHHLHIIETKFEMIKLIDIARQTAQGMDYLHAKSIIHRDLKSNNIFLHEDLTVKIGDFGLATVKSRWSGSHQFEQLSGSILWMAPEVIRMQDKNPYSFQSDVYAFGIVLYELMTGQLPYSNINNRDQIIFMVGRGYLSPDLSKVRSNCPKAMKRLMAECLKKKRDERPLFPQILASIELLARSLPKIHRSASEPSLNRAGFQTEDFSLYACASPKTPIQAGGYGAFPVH
Sequence of CRAF (P04049 whole entry, looked up): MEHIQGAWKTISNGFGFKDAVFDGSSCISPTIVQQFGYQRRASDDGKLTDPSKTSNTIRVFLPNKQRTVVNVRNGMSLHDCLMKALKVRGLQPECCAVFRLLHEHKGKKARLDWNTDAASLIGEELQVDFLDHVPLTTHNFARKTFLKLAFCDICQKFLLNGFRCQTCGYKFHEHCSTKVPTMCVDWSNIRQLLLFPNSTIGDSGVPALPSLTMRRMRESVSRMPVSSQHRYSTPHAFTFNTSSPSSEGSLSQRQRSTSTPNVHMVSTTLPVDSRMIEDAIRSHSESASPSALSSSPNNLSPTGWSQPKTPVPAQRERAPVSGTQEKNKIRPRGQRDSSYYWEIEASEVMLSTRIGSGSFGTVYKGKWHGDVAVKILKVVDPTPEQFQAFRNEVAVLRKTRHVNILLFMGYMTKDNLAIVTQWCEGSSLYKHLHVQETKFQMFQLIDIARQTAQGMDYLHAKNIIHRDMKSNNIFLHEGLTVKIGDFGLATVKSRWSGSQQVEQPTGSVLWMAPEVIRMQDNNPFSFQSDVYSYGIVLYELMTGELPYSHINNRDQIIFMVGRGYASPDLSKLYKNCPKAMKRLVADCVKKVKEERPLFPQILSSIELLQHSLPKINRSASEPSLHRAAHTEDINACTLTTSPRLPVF

Structure (SMILES)	IC50 (BRAF; [3]) [nM]	HCT116 pERK Ymin % ([1]; HCT116 cells, Ymin in brackets) [%]	IC50 [1, 4] [nM]	IC50 (CRAF; [5]) [nM]	SW480 pERK Ymin % ([2]; SW480 cells, Ymin in brackets) [%]	IC50 [2, 6] [nM]	also measured
COc1ccc(S(=O)(=O)Nc2ccc(F)c(Nc3ncnc4ccc(-c5cncs5)nc34)c2F)c(C)c1 [Ex 59]	> 10	−0.7	500 to 1000	10 to 50	−4.9	500 to 1000	
COc1cncc(-c2ccc3ncnc(Nc4c(F)ccc(NS(=O)(=O)c5ccc(OC)cc5C)c4F)c3n2)c1 [Ex 62]	> 10	−9	1000 to 10000	> 50	8	1000 to 10000	
Cc1ncn(-c2ccc3ncnc(Nc4c(F)ccc(NS(=O)(=O)c5ccccc5Cl)c4F)c3n2)c1C [Ex 66]	1 to 10	−2	1000 to 10000	10 to 50	−5	1000 to 10000	
O=S(=O)(Nc1ccc(F)c(Nc2ncnc3ccc(-c4cncs4)nc23)c1F)c1ccccc1Cl [Ex 67]	1 to 10	−3.6	500 to 1000	10 to 50	−1.3	500 to 1000	
COc1ccc(S(=O)(=O)Nc2ccc(F)c(Nc3ncnc4ccc(-c5cnn6ccccc56)nc34)c2F)c(C)c1 [Ex 73]	> 10	5	1000 to 10000	> 50	−1	1000 to 10000	
COc1ccc(S(=O)(=O)Nc2ccc(F)c(Nc3ncnc4ccc(-n5cnc6c(N)cccc65)nc34)c2F)c(C)c1 [Ex 76]	1 to 10	8	< 500	10 to 50	6	< 500	
Nc1ncnc2c1ncn2-c1ccc2ncnc(Nc3c(F)ccc(NS(=O)(=O)c4ccccc4Cl)c3F)c2n1 [Ex 89]	1 to 10	8	1000 to 10000	> 50	−3	1000 to 10000	
COc1ccc(S(=O)(=O)Nc2ccc(F)c(Nc3ncnc4ccc(-n5cnc6ccccc65)nc34)c2F)cc1 [Example 1]	1 to 10			10 to 50			IC50 ([1]; HCT116 cells, 1 h treatment): 1000 to 10000 nM; HCT116 pERK Ymin % [1, 7]: 8%; IC50 ([2]; SW480 cells, 1 h treatment): 1000 to 10000 nM; SW480 pERK Ymin % [2, 8]: 4%
O=S(=O)(Nc1ccc(F)c(Nc2ncnc3ccc(-n4cnc5ccccc54)nc23)c1F)c1ccccc1Cl [Example 8]	1 to 10			< 10			IC50 ([1]; HCT116 cells, 1 h treatment): 500 to 1000 nM; HCT116 pERK Ymin % [1, 7]: −2.5%; IC50 ([2]; SW480 cells, 1 h treatment): 500 to 1000 nM; SW480 pERK Ymin % [2, 8]: 4.8%
CCc1ccc(S(=O)(=O)Nc2ccc(F)c(Nc3ncnc4ccc(-n5cnc6ccccc65)nc34)c2F)cc1 [Example 10]	> 10			> 50			IC50 ([1]; HCT116 cells, 1 h treatment): 10000 to 30000 nM; HCT116 pERK Ymin % [1, 7]: 1%; IC50 ([2]; SW480 cells, 1 h treatment): 1000 to 10000 nM; SW480 pERK Ymin % [2, 8]: 12%
COc1ccc(S(=O)(=O)Nc2ccc(F)c(Nc3ncnc4ccc(-n5cnc6c(C(N)=O)cccc65)nc34)c2F)c(C)c1 [Example 75]	> 10	0	500 to 1000	10 to 50	1	500 to 1000	
Nc1cccc2c1ncn2-c1ccc2ncnc(Nc3c(F)ccc(NS(=O)(=O)c4ccccc4Cl)c3F)c2n1 [Example 83]	1 to 10	−7.3	< 500	< 10	2.5	< 500	
CN(C)C(=O)c1cn(-c2ccc3ncnc(Nc4c(F)ccc(NS(=O)(=O)c5ccccc5Cl)c4F)c3n2)c2cccc(N)c12 [Example 96]	< 1	12	< 500	> 50	12	< 500	
Nc1cccc2c1nnn2-c1ccc2ncnc(Nc3c(F)ccc(NS(=O)(=O)c4cccc(Cl)c4Cl)c3F)c2n1 [Example 100]	< 1	−16	< 500	< 10	16	< 500	
Cc1c(Cl)cccc1S(=O)(=O)Nc1cccc(Nc2ncnc3ccc(-n4cnc5ccccc54)nc23)c1F [Example 240]							IC50 (BRAF; Table 5, read-out: Kinase IC50 (nM) BRAF): 1 to 10 nM; IC50 ([1]; HCT116 cells, Table 5): < 500 nM; HCT116 pERK Ymin % ([1]; lowest value of the curve, HCT116, Table 5): 7%; IC50 (CRAF; Table 5, read-out: Kinase IC50 (nM) CRAF): 10 to 50 nM; IC50 ([2]; SW480 cells, Table 5): < 500 nM; SW480 pERK Ymin % ([2]; lowest value of the curve, SW480, Table 5): (−8) %
O=S(=O)(Nc1ccc(F)c(Nc2ncnc3ccc(-n4cnc5c(N6CCC(O)(CCO)CC6)cccc54)nc23)c1F)c1cccc(Cl)c1Cl [Example 671]							IC50 (BRAF; [9]): < 1 nM; IC50 ([1]; HCT116 cells): < 500 nM; HCT116 pERK % Ymin (lowest value of the IC50 curve) ([1]; HCT116 cells): −5%; IC50 (CRAF; [10]): < 10 nM
O=S(=O)(Nc1ccc(F)c(Nc2ncnc3ccc(-n4cnc5c(C6CCN(CCO)CC6)cccc54)nc23)c1F)c1cccc(Cl)c1Cl [Example 681]							IC50 (BRAF; [9]): < 1 nM; IC50 ([1]; HCT116 cells): < 500 nM; HCT116 pERK % Ymin (lowest value of the IC50 curve) ([1]; HCT116 cells): −9%; IC50 (CRAF; [10]): < 10 nM
Cc1cn(-c2ccc3ncnc(Nc4c(F)ccc(NS(=O)(=O)c5cccc(Cl)c5Cl)c4F)c3n2)nn1 [Example 684]							IC50 (BRAF; [9]): < 1 nM; IC50 ([1]; HCT116 cells): < 500 nM; HCT116 pERK % Ymin (lowest value of the IC50 curve) ([1]; HCT116 cells): −14%; IC50 (CRAF; [10]): < 10 nM
CCC1(O)CCN(c2nccc3c2ncn3-c2ccc3ncnc(Nc4c(F)ccc(NS(=O)(=O)c5cccc(Cl)c5Cl)c4F)c3n2)CC1 [Example 691]							IC50 (BRAF; [9]): 1 to 10 nM; IC50 ([1]; HCT116 cells): < 500 nM; HCT116 pERK % Ymin (lowest value of the IC50 curve) ([1]; HCT116 cells): 6%; IC50 (CRAF; [10]): 10 to 50 nM
